Measured values from patent US4129648A, “Method for reducing endogenous prostaglandin synthesis” (priority 1977, dated 1978).
Structures can show the parent of a compound that is named as a salt.

Legend:
[1] = system: bronchoconstriction induced by sodium arachidonate; assay: Dynamic compliance and airway resistance in the anaesthetized guinea pig challenged with sodium arachidonate; format: in vivo
Experimental: (§1) The ability of Cohn subfraction IV4 and haptoglobin to reduce the transient hypertension caused by administration of sodium arachidonate in the guinea pig was also measured. These tests were carried out as follows.
(§2) Male albino guinea pigs weighing 400-600 g each (Dunkin Hartley strain) were anesthetized by administration of sodium pentobarbitone, 60 mg/kg intraperitoneally. The trachea was cannulated for artificial ventilation by a Starling pump (5-8 ml at 72 strokes per minute) via a Fleisch 0000 pneumatachograph. The difference in pressure across this device was measured with a Grass differential pressure transducer. […] Transpulmonary pressure (TPP) was measured with another differential pressure transducer via side arms to the thoracic cavity and the tracheal cannula. The signals for low and TPP were applied to the analogue computer so that there was approximately 180° phase difference. The computer derived the dynamic compliance and resistance from the in-going signals. Drugs were administered intravenously via the external jugular vein. A 1 mg/ml solution of sodium arachidonate was prepared as follows. […] These doses were given at 30 minute intervals to produce a large but submaximal bronchoconstriction. After 2 or 3 similar responses to the same dose of sodium arachidonate had been obtained, the test substance in saline (0.1 to 1 ml) was injected intravenously. At various times thereafter, a challenge was given.

[2] = system: transient hypertension induced by sodium arachidonate; assay: Mean arterial blood pressure in the anaesthetized guinea pig challenged with sodium arachidonate; format: in vivo
Experimental: as §1, §2
The left carotid artery was cannulated for recording blood pressure with a Grass pressure transducer (Consolidated Dynamics 0.75 cm Hg type 4L221) linked to a Devices twin channel polygraph via a CD2D pre-amplifier. Electrocardiograms were recorded using a DC6 pre-amplifier linked to the Devices polygraph.

[3] = dose 0.04 mg/kg intravenously, challenge 30 min after treatment
[4] = dose 0.20 mg/kg intravenously, challenge 30 min after treatment
[5] = dose 0.50 mg/kg intravenously, challenge 30 min after treatment
[6] = dose 0.50 mg/kg intravenously, challenge 60 min after treatment
[7] = dose 2 mg/kg intravenously, challenge 45 sec after treatment
[8] = dose 2 mg/kg intravenously, challenge 30 min after treatment
[9] = dose 15 mg/kg intravenously, challenge 45 sec after treatment
[10] = dose 15 mg/kg intravenously, challenge 10 min after treatment
[11] = dose 15 mg/kg intravenously, challenge 30 min after treatment
[12] = dose 15 mg/kg intravenously, challenge 60 min after treatment
[13] = dose 15 mg/kg intravenously, challenge 90 min after treatment
[14] = dose 15 mg/kg intravenously, challenge 120 min after treatment
[15] = dose 0.03 mg/kg intravenously, challenge 45 sec after treatment
[16] = dose 0.10 mg/kg intravenously, challenge 45 sec after treatment
[17] = dose 25μ/kg intravenously, challenge 30 min after treatment
[18] = dose 25μ/kg intravenously, challenge 60 min after treatment
[19] = dose 25μ/kg intravenously, challenge 90 min after treatment
[20] = dose 25μ/kg intravenously, challenge 120 min after treatment
[21] = dose 25μ/kg intravenously, challenge 150 min after treatment
[22] = dose 50μ/kg intravenously, challenge 30 min after treatment
[23] = dose 50μ/kg intravenously, challenge 60 min after treatment
[24] = dose 50μ/kg intravenously, challenge 90 min after treatment
[25] = dose 50μ/kg intravenously, challenge 120 min after treatment
[26] = dose 50μ/kg intravenously, challenge 150 min after treatment
[27] = dose 50μ/kg intravenously, challenge 180 min after treatment
[28] = dose 50μ/kg intravenously, challenge 210 min after treatment
[29] = dose 50μ/kg intravenously, challenge 240 min after treatment
[30] = dose 5 mg/kg intravenously, challenge 45 sec after treatment
[31] = dose 20 mg/kg intravenously, challenge 45 sec after treatment
[32] = dose 50 mg/kg intravenously, challenge 45 sec after treatment
[33] = dose 100 mg/kg intravenously, challenge 45 sec after treatment

C[C@]12CCC(=O)C=C1CC[C@@H]1[C@@H]2[C@@H](O)C[C@]2(C=O)[C@@H](C(=O)CO)CC[C@@H]12 [Aldosterone, aldosterone]
Mean % Inhibition (± s.e.) of educed dynamic lung compliance [1, 3]: 0%
Mean % Inhibition (± s.e.) of increased airway resistance [1, 3]: 9.0%
Mean % Inhibition (± s.e.) of educed dynamic lung compliance [1, 4]: 1.0%
Mean % Inhibition (± s.e.) of increased airway resistance [1, 4]: 14.0%
Mean % Inhibition (± s.e.) of educed dynamic lung compliance [1, 5]: 10.5 ± 6.5%
Mean % Inhibition (± s.e.) of increased airway resistance [1, 5]: 0%
Mean % Inhibition (± s.e.) of educed dynamic lung compliance [1, 6]: 5.0 ± 5.0%
Mean % Inhibition (± s.e.) of increased airway resistance [1, 6]: 6.5 ± 6.5%

CC(=O)Oc1ccccc1C(=O)O [Aspirin, aspirin calcium salt]
Mean % Inhibition (± s.e.) of educed dynamic lung compliance [1, 7]: 71.5 ± 6.5%
Mean % Inhibition (± s.e.) of increased airway resistance [1, 7]: 85.5 ± 3.5%
Mean % Inhibition (± s.e.) of educed dynamic lung compliance [1, 8]: 81.5 ± 7.5%
Mean % Inhibition (± s.e.) of increased airway resistance [1, 8]: 91.0 ± 9.0%

C[C@]12CCC(=O)C=C1CC[C@@H]1[C@@H]2[C@@H](O)C[C@@]2(C)[C@H]1CC[C@]2(O)C(=O)COC(=O)CCC(=O)O [Hydrocortisone, hydrocortisone sodium succinate]
Mean % Inhibition (± s.e.) of hypertension [2, 9]: 35.0 ± 2.0%
Mean % Inhibition (± s.e.) of hypertension [2, 10]: 48.0 ± 18.0%
Mean % Inhibition (± s.e.) of hypertension [2, 11]: 25.0 ± 25.0%
Mean % Inhibition (± s.e.) of hypertension [2, 12]: 25.0%
Mean % Inhibition (± s.e.) of educed dynamic lung compliance [1, 9]: 15.0 ± 7.5%
Mean % Inhibition (± s.e.) of increased airway resistance [1, 9]: 24.0 ± 1.5%
Mean % Inhibition (± s.e.) of educed dynamic lung compliance [1, 10]: 21.3 ± 4.2%
Mean % Inhibition (± s.e.) of increased airway resistance [1, 10]: 24.3 ± 6.8%
Mean % Inhibition (± s.e.) of educed dynamic lung compliance [1, 11]: 49.0 ± 9.7%
Mean % Inhibition (± s.e.) of increased airway resistance [1, 11]: 46.2 ± 5.7%
Mean % Inhibition (± s.e.) of educed dynamic lung compliance [1, 12]: 44.0 ± 6.0%
Mean % Inhibition (± s.e.) of increased airway resistance [1, 12]: 61.0 ± 3.0%
Mean % Inhibition (± s.e.) of educed dynamic lung compliance [1, 13]: 25.0%
Mean % Inhibition (± s.e.) of increased airway resistance [1, 13]: 54.0%
Mean % Inhibition (± s.e.) of educed dynamic lung compliance [1, 14]: 12.0%
Mean % Inhibition (± s.e.) of increased airway resistance [1, 14]: 17.0%

COc1ccc2c(c1)c(CC(=O)O)c(C)n2C(=O)c1ccc(Cl)cc1 [Indomethacin, indomethacin sodium salt]
Mean % Inhibition (± s.e.) of hypertension [2, 15]: 65.0 ± 2.1%
Mean % Inhibition (± s.e.) of educed dynamic lung compliance [1, 15]: 58.7 ± 15.7%
Mean % Inhibition (± s.e.) of increased airway resistance [1, 15]: 47.0 ± 15.8%
Mean % Inhibition (± s.e.) of educed dynamic lung compliance [1, 16]: 85.5 ± 14.5%
Mean % Inhibition (± s.e.) of increased airway resistance [1, 16]: 90.5 ± 9.5%

ACTH: a drenocorticotrophin (ACTH), well known anti-inflammatory agent (SYSMEHFRWGKPVGKKRRPVKVYPNGAEDESAEAFPLEF; Corticotropin; UniProt P01189 138-176, looked up)
Mean % Inhibition (± s.e.) of hypertension [2, 17]: 24.0 ± 10.0%
Mean % Inhibition (± s.e.) of hypertension [2, 18]: 28.5 ± 14.5%
Mean % Inhibition (± s.e.) of hypertension [2, 19]: 49.0 ± 15.0%
Mean % Inhibition (± s.e.) of hypertension [2, 20]: 53.5 ± 3.5%
Mean % Inhibition (± s.e.) of hypertension [2, 21]: 17.0%
Mean % Inhibition (± s.e.) of hypertension [2, 22]: 83.0%
Mean % Inhibition (± s.e.) of hypertension [2, 23]: 67.0%
Mean % Inhibition (± s.e.) of hypertension [2, 24]: 100.0%
Mean % Inhibition (± s.e.) of hypertension [2, 25]: 67.0%
Mean % Inhibition (± s.e.) of hypertension [2, 26]: 100.0%
Mean % Inhibition (± s.e.) of hypertension [2, 27]: 83.0%
Mean % Inhibition (± s.e.) of hypertension [2, 28]: 100.0%
Mean % Inhibition (± s.e.) of hypertension [2, 29]: 100.0%
Mean % Inhibition (± s.e.) of educed dynamic lung compliance [1, 17]: 16.5 ± 16.5%
Mean % Inhibition (± s.e.) of increased airway resistance [1, 17]: 31.5 ± 24.5%
Mean % Inhibition (± s.e.) of educed dynamic lung compliance [1, 18]: 35.5 ± 2.5%
Mean % Inhibition (± s.e.) of increased airway resistance [1, 18]: 55.5 ± 3.5%
Mean % Inhibition (± s.e.) of educed dynamic lung compliance [1, 19]: 62.5 ± 12.5%
Mean % Inhibition (± s.e.) of increased airway resistance [1, 19]: 72.5 ± 12.5%
Mean % Inhibition (± s.e.) of educed dynamic lung compliance [1, 20]: 53.0 ± 3.0%
Mean % Inhibition (± s.e.) of increased airway resistance [1, 20]: 68.5 ± 16.5%
Mean % Inhibition (± s.e.) of educed dynamic lung compliance [1, 21]: 63.0%
Mean % Inhibition (± s.e.) of increased airway resistance [1, 21]: 85.0%
Mean % Inhibition (± s.e.) of increased airway resistance [1, 22]: 52.0%
Mean % Inhibition (± s.e.) of increased airway resistance [1, 23]: 73.0%
Mean % Inhibition (± s.e.) of increased airway resistance [1, 24]: 73.0%
Mean % Inhibition (± s.e.) of increased airway resistance [1, 25]: 91.0%
Mean % Inhibition (± s.e.) of increased airway resistance [1, 26]: 68.0%
Mean % Inhibition (± s.e.) of increased airway resistance [1, 27]: 59.0%
Mean % Inhibition (± s.e.) of increased airway resistance [1, 28]: 66.0%
Mean % Inhibition (± s.e.) of increased airway resistance [1, 29]: 67.0%
Mean % Inhibition (± s.e.) of educed dynamic lung compliance ([1]; intravenously, challenge 30 min after treatment): 67.0%
Mean % Inhibition (± s.e.) of educed dynamic lung compliance ([1]; intravenously, challenge 60 min after treatment): 50.0%
Mean % Inhibition (± s.e.) of educed dynamic lung compliance ([1]; intravenously, challenge 90 min after treatment): 67.0%
Mean % Inhibition (± s.e.) of educed dynamic lung compliance ([1]; intravenously, challenge 120 min after treatment): 75.0%
Mean % Inhibition (± s.e.) of educed dynamic lung compliance ([1]; intravenously, challenge 150 min after treatment): 58.0%
Mean % Inhibition (± s.e.) of educed dynamic lung compliance ([1]; intravenously, challenge 180 min after treatment): 75.0%
Mean % Inhibition (± s.e.) of educed dynamic lung compliance ([1]; intravenously, challenge 210 min after treatment): 75.0%
Mean % Inhibition (± s.e.) of educed dynamic lung compliance ([1]; intravenously, challenge 240 min after treatment): 75.0%

Haptoglobin heated to 60° C 15 min: haptoglobin from Cohn subfraction IV4 by ammonium sulphate purification, partially heat-inactivated
Mean % Inhibition (± s.e.) of hypertension [2, 30]: 7.0 ± 7.0%
Mean % Inhibition (± s.e.) of educed dynamic lung compliance [1, 30]: 6.3 ± 6.3%
Mean % Inhibition (± s.e.) of increased airway resistance [1, 30]: 10.3 ± 5.2%

Haptoglobin: obtained from human plasma Cohn subfraction IV4 by ammonium sulphate purification and DEAE cellulose chromatography
Mean % Inhibition (± s.e.) of hypertension [2, 30]: 34.5 ± 13.9%
Mean % Inhibition (± s.e.) of hypertension [2, 31]: 83.5 ± 16.5%
Mean % Inhibition (± s.e.) of hypertension [2, 32]: 90.0 ± 10.0%
Mean % Inhibition (± s.e.) of hypertension [2, 33]: 73.0%
Mean % Inhibition (± s.e.) of educed dynamic lung compliance [1, 30]: 27.4 ± 5.3%
Mean % Inhibition (± s.e.) of increased airway resistance [1, 30]: 31.8 ± 4.7%
Mean % Inhibition (± s.e.) of educed dynamic lung compliance [1, 31]: 34.3 ± 7.4%
Mean % Inhibition (± s.e.) of increased airway resistance [1, 31]: 44.3 ± 6.7%
Mean % Inhibition (± s.e.) of educed dynamic lung compliance [1, 32]: 49.0 ± 3.2%
Mean % Inhibition (± s.e.) of increased airway resistance [1, 32]: 67.7 ± 0.3%
Mean % Inhibition (± s.e.) of educed dynamic lung compliance [1, 33]: 64.0 ± 0%
Mean % Inhibition (± s.e.) of increased airway resistance [1, 33]: 67.0 ± 8.0%
